According to paper PMC9444293 (Investigative Radiology, 2022):
Where two headings read alike, the source gives them in different places. Marks after values point to notes of the source that are not given here.

What was measured:
[1] = type: physicochemical; conditions: after 3 days
[2] = tested on: GS9L (rat glioblastoma) brain tumors; assay: Contrast-enhanced MRI of GS9L brain tumors in rats; type: in vivo; conditions: GS9L rats n = 4, 1.5 T, 5 minutes p.i., both 0.1 mmol Gd/kg bw, intraindividual
[3] = Nuclear magnetic relaxation dispersion; type: physicochemical; conditions: 37°C
[4] = HPLC-ICP-MS analysis of rat urine for metabolites; type: in vivo; conditions: rat urine up to 6 hours after single IV 0.1 mmol Gd/kg bw
[5] = Solubility in buffer solution; type: physicochemical; conditions: buffer 10 mM Tris-HCl, pH 7.4, room temperature (20°C), 24 hours
[6] = r1-relaxivity at 3.0 T in human plasma; type: physicochemical; conditions: for r1-Relaxivity in Human Plasma at 37°C, 3.0 T (per Gd): pH 7.4, per Gd; for r1-Relaxivity in Human Plasma at 37°C, 3.0 T (per molecule): pH 7.4, per molecule
human hepatocytes = assay: Metabolism in human hepatocytes; type: in vitro ADME; conditions: 2.5 μmol/L (10 μmol Gd/L), 4 hours
[7] = type: physicochemical; conditions: 37°C, pH 7.4, 21 days (3 weeks)
plasma proteins [8] = assay: Protein binding in rat plasma, equilibrium dialysis; type: in vitro ADME; conditions: 3 μmol Gd/L, 37°C, 2 hours
[9] = Osmolality of the formulation; type: physicochemical; conditions: formulation 0.3 mol Gd/L
[10] = Number of inner sphere water molecules; type: physicochemical; conditions: per Gd
[11] = IV 0.1 mmol Gd/kg bw
Partition coefficient = type: physicochemical; conditions: pH 7.4, room temperature
rat hepatocytes = assay: Metabolism in rat hepatocytes; type: in vitro ADME; conditions: 2.5 μmol/L (10 μmol Gd/L), 4 hours
[12] = Viscosity of the formulation; type: physicochemical; conditions: formulation 0.3 mol Gd/L
[13] = rat
plasma proteins [14] = assay: Protein binding in human plasma, equilibrium dialysis; type: in vitro ADME; conditions: 3 μmol Gd/L, 37°C, 2 hours
[15] = Blood-to-plasma partition ratio; type: in vitro ADME; conditions: 6 human donors, 0.25 mmol Gd/L, 60 minutes, 37°C, mean ± SD
r1-relaxivity at 1.41 T = type: physicochemical, human; conditions: for r1-Relaxivity in Human Plasma at 37°C, 1.5 T (per molecule): pH 7.4, per molecule
[16] = rat, 3-compartment model, listed as BAY 1747846
[17] = 7 days after single IV 0.1 mmol Gd/kg bw
[18] = 7 days after single IV 0.1 mmol Gd/kg bw, LLOQ 0.05

CC(C(=O)NCC(=O)NCC(CNC(=O)CNC(=O)C(C)N1CCN(CC(=O)[O-])CCN(CC(=O)[O-])CCN(CC(=O)[O-])CC1)(CNC(=O)CNC(=O)C(C)N1CCN(CC(=O)[O-])CCN(CC(=O)[O-])CCN(CC(=O)[O-])CC1)CNC(=O)CNC(=O)C(C)N1CCN(CC(=O)[O-])CCN(CC(=O)[O-])CCN(CC(=O)[O-])CC1)N1CCN(CC(=O)[O-])CCN(CC(=O)[O-])CCN(CC(=O)[O-])CC1.[Gd+3].[Gd+3].[Gd+3].[Gd+3] (stereo not shown) [Gadoquatrane, tetragadolinium [4,10-bis(carboxylatomethyl)-7-{3,6,12,15-tetraoxo-16-[4,7,10-tris-(carboxyl-atomethyl)-1,4,7,10-tetraazacyclododecan-1-yl]-9,9-bis({[({2-[4,7,10-tris-(carboxylatomethyl)-1,4,7,10-tetraazacyclododecan-1-yl]propanoyl}amino)acetyl]-amino}methyl)-4,7,11,14-tetraazahepta-decan-2-yl}-1,4,7,10-tetraazacyclododecan-1-yl]acetate]
Decrease of the T1 relaxation rates (R1) in zinc transmetallation assay [1]: no Gd^3+ release | Decrease of the T1 relaxation rates (R1) in zinc transmetallation assay ([1]; listed as gadoquatrane): no change | CNR (tumor-to-brain) compared with gadobutrol [2]: clearly higher CNR | NMRD r1-relaxivity per Gd, fold higher compared with gadobutrol, in human plasma ([3]; human plasma, up to 200 MHz (4.7 T)): 2 fold | NMRD r1-relaxivity per Gd, fold higher compared with gadobutrol, in water ([3]; water, 20–200 MHz (0.47–4.7 T)): ~ 3 fold | Metabolic stability / formation of metabolites in urine [4]: high metabolic stability and no hint of formation of metabolites | Solubility [5]: 1.43 mol Gd/L | r1-Relaxivity in Human Plasma at 37°C, 3.0 T (per Gd) [6]: 10.5 ± 0.3 mM⁻¹ s⁻¹ | r1-Relaxivity in Human Plasma at 37°C, 3.0 T (per Gd) ([6]; listed as gadoquatrane): 10.5 mM⁻¹ s⁻¹ | r1-Relaxivity in Human Plasma at 37°C, 3.0 T (per molecule) [6]: 41.9 ± 0.6 mM⁻¹ s⁻¹ | r1-Relaxivity in Human Plasma at 37°C, 3.0 T (per molecule) ([6]; listed as gadoquatrane): 41.9 mM⁻¹ s⁻¹ | In vitro uptake or metabolic degradation in hepatocytes (human hepatocytes): No in vitro uptake or metabolic degradation | Total Gd release after 21 days in human serum [7]: no release of Gd^3+ | Free fraction in plasma (fraction unbound) (plasma proteins [8]): 93% | Osmolality at 37°C [9]: 294 (iso-osmolar to blood) mosmol/kg H2O | Osmolality at 37°C ([9]; listed as gadoquatrane): 294 mosmol/kg H2O | No. Inner Sphere Water Molecules (q) [10]: q = 1 | No. Inner Sphere Water Molecules (q) ([10]; listed as gadoquatrane): 1 | AUC^∞ ([11]; rat plasma): 183 ± 11 (5.8%) μmol·h/L | γ-AUC ([11]; rat plasma): 1 % of AUC^∞ | γ-AUC ([11]; rat plasma, listed as BAY 1747846): 1.2 % of AUC^∞ | Clplasma ([11]; rat): 0.55 ± 0.03 (5.8%) L/h/kg | Vss ([11]; rat): 0.33 ± 0.05 (14%) L/kg | α t1/2 ([11]; rat, 3-compartment model, mean estimate ± SD (CV%)): 6.3 ± 1.5 (24%) min | β t1/2 [11, 16]: 25 ± 1.6 (6.4%) min | γ t1/2 [11, 16]: 13 ± 2.9 (22%) h | Log P (1-Butanol/Buffer) (Partition coefficient): −4.32 | In vitro uptake or metabolic degradation in hepatocytes (rat hepatocytes): No in vitro uptake or metabolic degradation | Viscosity at 37°C [12]: 1.22 mPa·s | Gadolinium concentration, Bone marrow [13, 17]: 0.413 ± 0.048 nmol Gd/g wet tissue | Gadolinium concentration, Carcass [13, 17]: 0.693 ± 0.126 nmol Gd/g wet tissue | Gadolinium concentration, Heart [13, 17]: 0.133 ± 0.014 nmol Gd/g wet tissue | Gadolinium concentration, Intestine [13, 17]: 0.316 ± 0.120 nmol Gd/g wet tissue | Gadolinium concentration, Kidney [13, 17]: 20.3 ± 1.37 nmol Gd/g wet tissue | Gadolinium concentration, Liver [13, 17]: 0.564 ± 0.065 nmol Gd/g wet tissue | Gadolinium concentration, Lung [13, 17]: 0.359 ± 0.024 nmol Gd/g wet tissue | Gadolinium concentration, Mesenterial lymph nodes [13, 17]: 1.20 ± 0.336 nmol Gd/g wet tissue | Gadolinium concentration, Muscle [13, 17]: 0.119 ± 0.021 nmol Gd/g wet tissue | Gadolinium concentration, Skin [13, 17]: 0.271 ± 0.044 nmol Gd/g wet tissue | Gadolinium concentration, Spleen [13, 17]: 0.654 ± 0.175 nmol Gd/g wet tissue | Gadolinium concentration, Stomach [13, 17]: 0.182 ± 0.023 nmol Gd/g wet tissue | Gadolinium concentration, Blood [13, 18]: <0.05* nmol Gd/g wet tissue | Gadolinium concentration, Brain [13, 18]: <0.08‡ nmol Gd/g wet tissue | Gadolinium concentration, Bone ([13]; femur, 7 days after single IV 0.1 mmol Gd/kg bw): 0.470 ± 0.201 nmol Gd/g wet tissue | Amount of Gd recovered in Feces, 0–5 d ([13]; in vivo, iv): 1.35% ± 0.6% | Amount of Gd recovered in Urine, 0–1 d ([13]; in vivo, iv): 96.4% ± 3.8% | Amount of Gd recovered in Urine, 0–5 d ([13]; in vivo, iv): 96.9% ± 3.7% | Total recovery of Gd, 0–7 d ([13]; in vivo, iv): 98.8% ± 6.2% | Excreted within 7 days ([13]; single IV 0.1 mmol Gd/kg bw): > 99 % of the injected dose | Free fraction in plasma (fraction unbound) (plasma proteins [14]): 96% | Blood-to-plasma ratio [15]: 0.62 ± 0.06 | r1-Relaxivity in Human Plasma at 37°C, 1.5 T (per Gd) (r1-relaxivity at 1.41 T; 60 MHz (1.41 T), 37°C, pH 7.4, per Gd, mean ± SD, n = 6 batches): 11.8 ± 0.3 mM⁻¹ s⁻¹ | r1-Relaxivity in Human Plasma at 37°C, 1.5 T (per molecule) (r1-relaxivity at 1.41 T; 60 MHz (1.41 T), 37°C): 47.2 ± 1.0 mM⁻¹ s⁻¹ | r1-Relaxivity in Human Plasma at 37°C, 1.5 T (per molecule) (r1-relaxivity at 1.41 T; 60 MHz (1.41 T), 37°C, listed as gadoquatrane): 47.2 mM⁻¹ s⁻¹ | r1-relaxivity in human plasma, fold higher per Gd compared with established GBCAs (r1-relaxivity at 1.41 T; human plasma, per Gd, vs established (m)GBCAs): more than 2 fold
